Our source for the IC50 values is US20090093454A1, “Chemical Compounds” (priority 2005, published 2009).

This experiment has as its system HIV-1. Kind of experiment: HIV infectivity assay (Table 2, strain not given). The following applies: Human immunodeficiency virus 1, read-out: Activity Level. The format is cell-based. As for the experimental part:
Compounds were profiled against two HIV-1 viruses, the M-tropic (CCR5 utilizing) Ba-L strain and the T-tropic (CXCR4 utilizing) IIIB strain. Both viruses were propagated in human peripheral blood lymphocytes. Compounds were tested for there ability to block infection of the HOS cell line (expressing hCXCR4/hCCR5/hCD4/pHIV-LTR-luciferase) by either HIV-1 Ba-L or HIV-1, IIIB. Compound cytotoxicity was also examined in the absence of virus addition.
HOS cells (expressing hCXCR4/hCCR5/hCD4/pHIV-LTR-luciferase) were harvested and diluted in Dulbeccos modified Eagles media supplemented with 2% FCS and non-essential amino acid to a concentration of 60,000 cells/ml. The cells were plated into 96-well plates (100 ul per well) and the plates were placed in a tissue culture incubator (37° C.; 5% CO2/95% air) for a period of 24 h.
Subsequently, 50 ul of the desired drug solution (4 times the final concentration) was added to each well and the plates were returned to the tissue culture incubator (37° C.; 5% CO2/95% air) for 1 h. Following this incubation 50 ul of diluted virus was added to each well (approximately 2 million RLU per well of virus). The plates were returned to the tissue culture incubator (37° C.; 5% CO2/95% air) and were incubated for a further 96 h.
Following this incubation the endpoint for the virally infected cultures was quantified following addition of Steady-Glo Luciferase assay system reagent (Promega, Madison, Wis.). Cell viability or non-infected cultures was measured using a CellTiter-Glo luminescent cell viability assay system (Promega, Madison, Wis.). All luminescent readouts are performed on a Topcount luminescence detector (Packard, Meridien, Conn.).
Compounds were profiled against two HIV-1 viruses, the M-tropic (CCR5 utilizing) Ba-L strain and the T-tropic (CXCR4 utilizing) IIIB strain. Ba-L was propagated in either peripheral blood lymphocytes or SupT1/CCR5+/CXCR4+ cells. IIIB was propagated in peripheral blood lymphocytes. Compounds were tested for their ability to block infection of the HOS cell line (expressing hCXCR4/hCCR5/hCD4/pHIV-LTR-luciferase) by either HIV-1 Ba-L or HIV-1, IIIB. Compound cytotoxicity was also examined in the absence of virus addition.
HOS cells (expressing hCXCR4/hCCR5/hCD4/pHIV-LTR-luciferase) were harvested and diluted in Dulbeccos modified Eagles media supplemented with 2% FCS to a concentration of 120,000 cells/ml. The cells were plated into 96-well plates (50 μl per well) and the plates were placed in a tissue culture incubator (370° C.; 5% CO2/95% air) for a period of 24 h.
Subsequently, 50 μl of the desired drug solution (2 times the final concentration) was added to each well and the plates were returned to the tissue culture incubator (370° C.; 5% CO2/95% air) for 1 h. Following this incubation, 60 μl of diluted virus (4 times the final concentration) was added to 60 μl of 2× the final desired concentration of the compound and 100 μl of this compound/virus mix was added to each well (approximately 2 million RLU per well of virus). The plates were returned to the tissue culture incubator (370° C.; 5% CO2/95% air) and were incubated for a further 96 h.

As to `CN1CCN(Cc2c(CN3CCC[C@H]4CCc5cccnc5[C@H]43)nc3cccc(N4CCN(C)CC4)n23)CC1` [Example 56, (4aR,10bS)-1-({5-(4-methyl-1-piperazinyl)-3-[(4-methyl-1-piperazinyl)methyl]imidazo[1,2-a]pyridin-2-yl}methyl)-1,2,3,4,4a,5,6,10b-octahydro-1,10-phenanthroline], the IC50 was less than 100 nM. In the case of `NCCCCn1c(CN2CCC[C@@H]3CCc4cccnc4[C@H]32)nc2ccccc21` (relative stereo) [Example 37, (trans) 4-[2-(3,4,4a,5,6,10b-hexahydro-1,10-phenanthrolin-1(2H)-ylmethyl)-1H-benzimidazol-1-yl]-1-butanamine] it was less than 100 nM; in that of `CN(C)C1CN(c2cccc3nc(CN4CCC[C@H]5CCc6cccnc6[C@H]54)cn23)C1` [Example 98, 1-{2-[(4aR,10bS)-3,4,4a,5,6,10b-hexahydro-1,10-phenanthrolin-1(2H)-ylmethyl]imidazo[1,2-a]pyridin-5-yl}-N,N-dimethyl-3-azetidinamine], 100 to 500 nM. Under `NCCCCCn1c(CN2CCC[C@H]3CCc4cccnc4[C@H]32)nc2ccccc21` (racemic) [Example 39, (cis) 5-[2-(3,4,4a,5,6,10b-hexahydro-1,10-phenanthrolin-1(2H)-ylmethyl)-1H-benzimidazol-1-yl]-1-pentanamine] stands 100 to 500 nM; under `c1cnc2c(c1)CC[C@@H]1CCCN(Cc3c[nH]cn3)[C@H]21` [Example 50, (4aR,10bS)-1-(1H-imidazol-4-ylmethyl)-1,2,3,4,4a,5,6,10b-octahydro-1,10-phenanthroline], 500 to 10000 nM; under `CN(C)CCCn1c(CN2CCC[C@H]3CCc4cccnc4[C@H]32)nc2ccccc21` (racemic) [Example 41, (cis) 3-[2-(3,4,4a,5,6,10b-hexahydro-1,10-phenanthrolin-1(2H)-ylmethyl)-1H-benzimidazol-1-yl]-N,N-dimethyl-1-propanamine], less than 100 nM. In the case of `COCCN1CCN(c2cccc3nc(CN4CCC[C@H]5CCc6cccnc6[C@H]54)cn23)CC1` [Example 99, (4aR,10bS)-1-[(5-{4-[2-(methyloxy)ethyl]-1-piperazinyl}imidazo[1,2-a]pyridin-2-yl)methyl]-1,2,3,4,4a,5,6,10b-octahydro-1,10-phenanthroline] it was less than 100 nM; in that of `NC1CCN(c2cccc3nc(CN4CCC[C@H]5CCc6cccnc6[C@H]54)cn23)CC1` [Example 89, 1-{2-[(4aR,10bS)-3,4,4a,5,6,10b-hexahydro-1,10-phenanthrolin-1(2H)-ylmethyl]imidazo[1,2-a]pyridin-5-yl}-4-piperidinamine], less than 100 nM; in that of `CN1CCCN(c2cccc3nc(CN4CCC[C@@H]5CCCc6cccnc6[C@H]54)cn23)CC1` (relative stereo) [Example 125, (trans) 1-{[5-(4-methylhexahydro-1H-1,4-diazepin-1-yl)imidazo[1,2-a]pyridin-2-yl]methyl}-2,3,4,4a,5,6,7,11b-octahydro-1H-pyrido[3′,2′:6,7]cyclohepta[1,2-b]pyridine], 100 to 500 nM. For `C[C@@H]1CN[C@@H](C)CN1c1cccc2nc(CN3CCC[C@H]4CCc5cccnc5[C@H]43)cn12` [Example 79, (4aR,10bS)-1-({5-[(2R,5S)-2,5-dimethyl-1-piperazinyl]imidazo[1,2-a]pyridin-2-yl}methyl)-1,2,3,4,4a,5,6,10b-octahydro-1,10-phenanthroline], the IC50 is less than 100 nM. Under `c1ccc(Cn2c(CN3CCC[C@H]4CCc5cccnc5[C@H]43)nc3ccccc32)nc1` (racemic) [Example 45, (cis) 1-{[1-(2-pyridinylmethyl)-1H-benzimidazol-2-yl]methyl}-1,2,3,4,4a,5,6,10b-octahydro-1,10-phenanthroline] stands 500 to 10000 nM.
